Results taken from ChEMBL document CHEMBL4418490, “N-(heteroaryl)-sulfonamide derivatives useful as s100-inhibitors” (2018).
The source made the active and inactive calls. No cut-off for these calls is given here.

Assays:
[1] = Plasma concentration in C215 transfected MC38 cells implanted C57BL/6 mouse at 1 mg/kg, iv dosed as cassette formulation and measured at 2 hrs after post dose by LC-MS analysis; type: ADME, organism-based
[2] = Plasma concentration in C215 transfected MC38 cells implanted C57BL/6 mouse assessed as N-(5-chloro-3-hydroxypyridin-2-yl)-1-(3,5-dichlorophenyl)methanesulfonamide level at 1 mg/kg, iv dosed as cassette formulation and measured at 4 hrs after post dose by LC-MS analysis; type: ADME, organism-based; conditions: in vivo
[3] = Plasma concentration in C215 transfected MC38 cells implanted C57BL/6 mouse at 5 mg/kg, po dosed as cassette formulation and measured at 4 hrs after post dose by LC-MS analysis; type: ADME, organism-based
[4] = Plasma concentration in C215 transfected MC38 cells implanted C57BL/6 mouse assessed as N-(5-chloro-3-hydroxypyridin-2-yl)-1-(3,5-dichlorophenyl)methanesulfonamide level at 5 mg/kg, po dosed as cassette formulation and measured at 4 hrs after post dose by LC-MS analysis; type: ADME, organism-based; conditions: in vivo
[5] = Plasma concentration in C215 transfected MC38 cells implanted C57BL/6 mouse at 5 mg/kg, po dosed as cassette formulation and measured at 1 hr after post dose by LC-MS analysis; type: ADME, organism-based
[6] = Plasma concentration in C215 transfected MC38 cells implanted C57BL/6 mouse assessed as N-(5-chloro-3-hydroxypyridin-2-yl)-1-(3,5-dichlorophenyl)methanesulfonamide level at 5 mg/kg, po dosed as cassette formulation and measured at 1 hr after post dose by LC-MS analysis; type: ADME, organism-based; conditions: in vivo
[7] = Plasma concentration in C215 transfected MC38 cells implanted C57BL/6 mouse at 1 mg/kg, iv dosed as cassette formulation and measured at 4 hrs after post dose by LC-MS analysis; type: ADME, organism-based
[8] = Plasma concentration in C215 transfected MC38 cells implanted C57BL/6 mouse at 1 mg/kg, iv dosed as cassette formulation and measured at 0.083 hrs after post dose by LC-MS analysis; type: ADME, organism-based
[9] = Plasma concentration in C215 transfected MC38 cells implanted C57BL/6 mouse assessed as N-(5-chloro-3-hydroxypyridin-2-yl)-1-(3,5-dichlorophenyl)methanesulfonamide level at 5 mg/kg, po dosed as cassette formulation and measured at 2 hrs after post dose by LC-MS analysis; type: ADME, organism-based; conditions: in vivo
[10] = Plasma concentration in C215 transfected MC38 cells implanted C57BL/6 mouse assessed as N-(5-chloro-3-hydroxypyridin-2-yl)-1-(3,5-dichlorophenyl)methanesulfonamide level at 1 mg/kg, iv dosed as cassette formulation and measured at 2 hrs after post dose by LC-MS analysis; type: ADME, organism-based; conditions: in vivo
[11] = Plasma concentration in C215 transfected MC38 cells implanted C57BL/6 mouse assessed as N-(5-chloro-3-hydroxypyridin-2-yl)-1-(3,5-dichlorophenyl)methanesulfonamide level at 5 mg/kg, po dosed as cassette formulation and measured at 7 hrs after post dose by LC-MS analysis; type: ADME, organism-based; conditions: in vivo
[12] = Plasma concentration in C215 transfected MC38 cells implanted C57BL/6 mouse at 1 mg/kg, iv dosed as cassette formulation and measured at 7 hrs after post dose by LC-MS analysis; type: ADME, organism-based
[13] = Plasma concentration in C215 transfected MC38 cells implanted C57BL/6 mouse at 5 mg/kg, po dosed as cassette formulation and measured at 7 hrs after post dose by LC-MS analysis; type: ADME, organism-based
[14] = Plasma concentration in C215 transfected MC38 cells implanted C57BL/6 mouse assessed as N-(5-chloro-3-hydroxypyridin-2-yl)-1-(3,5-dichlorophenyl)methanesulfonamide level at 1 mg/kg, iv dosed as cassette formulation and measured at 0.5 hrs after post dose by LC-MS analysis; type: ADME, organism-based; conditions: in vivo
[15] = Plasma concentration in C215 transfected MC38 cells implanted C57BL/6 mouse assessed as N-(5-chloro-3-hydroxypyridin-2-yl)-1-(3,5-dichlorophenyl)methanesulfonamide level at 1 mg/kg, iv dosed as cassette formulation and measured at 7 hrs after post dose by LC-MS analysis; type: ADME, organism-based; conditions: in vivo
[16] = Plasma concentration in C215 transfected MC38 cells implanted C57BL/6 mouse at 1 mg/kg, iv dosed as cassette formulation and measured at 0.5 hrs after post dose by LC-MS analysis; type: ADME, organism-based
[17] = Plasma concentration in C215 transfected MC38 cells implanted C57BL/6 mouse assessed as N-(5-chloro-3-hydroxypyridin-2-yl)-1-(3,5-dichlorophenyl)methanesulfonamide level at 1 mg/kg, iv dosed as cassette formulation and measured at 1 hr after post dose by LC-MS analysis; type: ADME, organism-based; conditions: in vivo
[18] = Plasma concentration in C215 transfected MC38 cells implanted C57BL/6 mouse at 1 mg/kg, iv dosed as cassette formulation and measured at 1 hr after post dose by LC-MS analysis; type: ADME, organism-based
[19] = Plasma concentration in C215 transfected MC38 cells implanted C57BL/6 mouse assessed as N-(5-chloro-3-hydroxypyridin-2-yl)-1-(3,5-dichlorophenyl)methanesulfonamide level at 5 mg/kg, po dosed as cassette formulation and measured at 0.5 hrs after post dose by LC-MS analysis; type: ADME, organism-based; conditions: in vivo
[20] = Plasma concentration in C215 transfected MC38 cells implanted C57BL/6 mouse assessed as N-(5-chloro-3-hydroxypyridin-2-yl)-1-(3,5-dichlorophenyl)methanesulfonamide level at 1 mg/kg, iv dosed as cassette formulation and measured at 0.083 hrs after post dose by LC-MS analysis; type: ADME, organism-based; conditions: in vivo
[21] = Plasma concentration in C215 transfected MC38 cells implanted C57BL/6 mouse at 5 mg/kg, po dosed as cassette formulation and measured at 0.5 hrs after post dose by LC-MS analysis; type: ADME, organism-based
[22] = Plasma concentration in C215 transfected MC38 cells implanted C57BL/6 mouse at 5 mg/kg, po dosed as cassette formulation and measured at 2 hrs after post dose by LC-MS analysis; type: ADME, organism-based
MC-38 = experiment: Antitumor activity against C215 transfected MC38 cells implanted in C57BL/6 mouse assessed as inhibition of tumor growth at 30 mg/kg, po dosed daily for 15 days starting following day of tumor inoculation; type: functional, organism-based

Compound: COc1cc(Cl)cnc1NS(=O)(=O)Cc1cc(Cl)cc(Cl)c1
- concentration at 2 h [1]: 380 nM
- concentration [2]: 4 nM
- concentration at 4 h [3]: 850 nM
- concentration [4]: 12 nM
- concentration at 1 h [5]: 1600 nM
- concentration [6]: 26 nM
- concentration at 4 h [7]: 170 nM
- concentration at 0.083 h [8]: 6.3 µM
- concentration [9]: 21 nM
- concentration [10]: 6 nM
- concentration [11]: 19 nM
- concentration at 7 h [12]: 150 nM
- concentration at 7 h [13]: 700 nM
- concentration [14]: 5 nM
- concentration [15]: 4 nM
- concentration at 0.5 h [16]: 550 nM
- concentration [17]: 3 nM
- concentration at 1 h [18]: 84 nM
- concentration [19]: 45 nM
- concentration [20]: 44 nM
- concentration at 0.5 h [21]: 3.6 µM
- concentration at 2 h [22]: 1300 nM

Compound: O=S(=O)(Nc1cnccc1O)c1cc(Cl)sc1Cl
- TGI (MC-38): Active
